In article PMC10425210 (The Journal of Clinical Investigation, 2023):
Where “and” joins values, the source holds several entries; their conditions need not be identical. Identical values can stand only once. Like-named read-outs stand apart in the source and are kept apart here.

Columns and labels:
HIV-1 [1] = assay: Antiviral assay against HIV-1 in MT-4 cells; format: cell-based; conditions: HIV-1IIIb in MT-4 cells
HIV-1 [2] = assay: Antiviral assay in human PBMCs infected with HIV-1 clinical isolates; format: cell-based; conditions: HIV-1, human PBMCs; EC95 x human plasma shift
SHIV-SF162P3 = format: in vivo, rhesus macaques

**Q.** For `CC(C)(C#Cc1ccc(-c2ccc(Cl)c3c(NS(C)(=O)=O)nn(CC(F)(F)F)c23)c([C@H](Cc2cc(F)cc(F)c2)NC(=O)Cn2nc(C(F)(F)F)c3c2C(F)(F)[C@@H]2C[C@H]32)n1)S(C)(=O)=O` [LEN, Lenacapavir], which “Hill coefficient (n)” value (HIV-1 [1]) is on record?
**A.** 3.51 ± 0.31

**Q.** What about the “paEC95 (protein-adjusted EC95)” value (HIV-1 [2]) of the same compound?
**A.** 2.01 nM and 2.01 ± 1.22 nM

**Q.** And the “time of measurable anti-capsid (p27) antibodies” value (SHIV-SF162P3; 3 animals positive for SHIV by qPCR)?
**A.** ≤ 4 week after challenge

**Q.** And the “first detectable intact SHIV DNA” value (SHIV-SF162P3; 3 animals with confirmed viremia)?
**A.** 2 week after challenge

**Q.** What about the animals becoming infected (SHIV-SF162P3; LEN exposure above the 70 nM target at challenge) of the same compound?
**A.** 0 of 6

**Q.** What about the “Animal number, Infected” value (SHIV-SF162P3; LEN-dosed <target (70 nM)) of the same compound?
**A.** 3

**Q.** What about the “Animal number, Uninfected” value (SHIV-SF162P3; LEN-dosed <target (70 nM)) of the same compound?
**A.** 2

**Q.** What about the “Animal number, Infected” value (SHIV-SF162P3; LEN-dosed >target (70 nM)) of the same compound?
**A.** 0

**Q.** And the “Animal number, Uninfected” value (SHIV-SF162P3; LEN-dosed >target (70 nM))?
**A.** 6

**Q.** And the “Animal number, Infected” value (SHIV-SF162P3; LEN-dosed total)?
**A.** 3

**Q.** And the “Animal number, Uninfected” value (SHIV-SF162P3; LEN-dosed total)?
**A.** 8

**Q.** And the Challenge outcome (SHIV-SF162P3; animal BM55, 20 mg/kg)?
**A.** Infected

**Q.** What about the “Intact SHIV DNA / 10M PBMC” value (SHIV-SF162P3; animal BM55, 20 mg/kg, Wk 2 post challenge) of the same compound?
**A.** 145.35 / 10M PBMC

**Q.** And the “Plasma SHIV RNA” value (SHIV-SF162P3; animal BM55, 20 mg/kg, week 6 post challenge)?
**A.** 7809 copies per mL

**Q.** What about the “Plasma SHIV RNA” value (SHIV-SF162P3; animal BM55, 20 mg/kg, week 7 post challenge) of the same compound?
**A.** 4541 copies per mL

**Q.** And the “Plasma SHIV RNA” value (SHIV-SF162P3; animal BM55, 20 mg/kg, week 8 post challenge)?
**A.** 69 copies per mL

**Q.** What about the “Plasma SHIV RNA” value (SHIV-SF162P3; animal BM55, 20 mg/kg, week 9 post challenge) of the same compound?
**A.** 62 copies per mL

**Q.** What about the “Plasma SHIV RNA” value (SHIV-SF162P3; animal BM55, 20 mg/kg, week 10 post challenge) of the same compound?
**A.** 62 copies per mL

**Q.** And the Challenge outcome (SHIV-SF162P3; animal BN33, 20 mg/kg)?
**A.** Not infected

**Q.** And the “Intact SHIV DNA / 10M PBMC” value (SHIV-SF162P3; animal BN33, 20 mg/kg, Wk 2 post challenge)?
**A.** 1 / 10M PBMC

**Q.** What about the “Intact SHIV DNA / 10M PBMC” value (SHIV-SF162P3; animal BN33, 20 mg/kg, Wk 10 post challenge) of the same compound?
**A.** 1 / 10M PBMC

**Q.** And the “Plasma SHIV RNA” value (SHIV-SF162P3; animal BN33, 20 mg/kg, week 6 post challenge)?
**A.** 62 copies per mL

**Q.** What about the “Plasma SHIV RNA” value (SHIV-SF162P3; animal BN33, 20 mg/kg, week 7 post challenge) of the same compound?
**A.** 62 copies per mL

**Q.** And the “Plasma SHIV RNA” value (SHIV-SF162P3; animal BN33, 20 mg/kg, week 8 post challenge)?
**A.** 62 copies per mL

**Q.** What about the “Plasma SHIV RNA” value (SHIV-SF162P3; animal BN33, 20 mg/kg, week 9 post challenge) of the same compound?
**A.** 62 copies per mL

**Q.** What about the “Plasma SHIV RNA” value (SHIV-SF162P3; animal BN33, 20 mg/kg, week 10 post challenge) of the same compound?
**A.** 62 copies per mL

**Q.** And the Challenge outcome (SHIV-SF162P3; animal CP67, 75 mg/kg)?
**A.** Not infected

**Q.** What about the “Intact SHIV DNA / 10M PBMC” value (SHIV-SF162P3; animal CP67, 75 mg/kg, Wk 2 post challenge) of the same compound?
**A.** 1 / 10M PBMC

**Q.** What about the “Intact SHIV DNA / 10M PBMC” value (SHIV-SF162P3; animal CP67, 75 mg/kg, Wk 10 post challenge) of the same compound?
**A.** 1 / 10M PBMC

**Q.** And the “Plasma SHIV RNA” value (SHIV-SF162P3; animal CP67, 75 mg/kg, week 0 post challenge)?
**A.** 62 copies per mL

**Q.** And the “Plasma SHIV RNA” value (SHIV-SF162P3; animal CP67, 75 mg/kg, week 1 post challenge)?
**A.** 62 copies per mL

**Q.** What about the “Plasma SHIV RNA” value (SHIV-SF162P3; animal CP67, 75 mg/kg, week 2 post challenge) of the same compound?
**A.** 62 copies per mL

**Q.** What about the Challenge outcome (SHIV-SF162P3; animal V229, 20 mg/kg) of the same compound?
**A.** Infected

**Q.** And the “Intact SHIV DNA / 10M PBMC” value (SHIV-SF162P3; animal V229, 20 mg/kg, Wk 2 post challenge)?
**A.** 398.25 / 10M PBMC

**Q.** What about the “Plasma SHIV RNA” value (SHIV-SF162P3; animal V229, 20 mg/kg, week 6 post challenge) of the same compound?
**A.** 189 copies per mL

**Q.** What about the “Plasma SHIV RNA” value (SHIV-SF162P3; animal V229, 20 mg/kg, week 7 post challenge) of the same compound?
**A.** 79 copies per mL

**Q.** And the “Plasma SHIV RNA” value (SHIV-SF162P3; animal V229, 20 mg/kg, week 8 post challenge)?
**A.** 69 copies per mL

**Q.** And the “Plasma SHIV RNA” value (SHIV-SF162P3; animal V229, 20 mg/kg, week 9 post challenge)?
**A.** 62 copies per mL

**Q.** What about the “Plasma SHIV RNA” value (SHIV-SF162P3; animal V229, 20 mg/kg, week 10 post challenge) of the same compound?
**A.** 62 copies per mL

**Q.** And the Challenge outcome (SHIV-SF162P3; animal V411, 50 mg/kg)?
**A.** Not infected

**Q.** What about the “Intact SHIV DNA / 10M PBMC” value (SHIV-SF162P3; animal V411, 50 mg/kg, Wk 2 post challenge) of the same compound?
**A.** 1 / 10M PBMC

**Q.** What about the “Intact SHIV DNA / 10M PBMC” value (SHIV-SF162P3; animal V411, 50 mg/kg, Wk 10 post challenge) of the same compound?
**A.** 1 / 10M PBMC

**Q.** What about the “Plasma SHIV RNA” value (SHIV-SF162P3; animal V411, 50 mg/kg, week 0 post challenge) of the same compound?
**A.** 62 copies per mL

**Q.** What about the “Plasma SHIV RNA” value (SHIV-SF162P3; animal V411, 50 mg/kg, week 1 post challenge) of the same compound?
**A.** 62 copies per mL

**Q.** What about the “Plasma SHIV RNA” value (SHIV-SF162P3; animal V411, 50 mg/kg, week 2 post challenge) of the same compound?
**A.** 62 copies per mL

**Q.** And the “Plasma SHIV RNA” value (SHIV-SF162P3; animal V411, 50 mg/kg, week 3 post challenge)?
**A.** 62 copies per mL

**Q.** What about the “Plasma SHIV RNA” value (SHIV-SF162P3; animal V411, 50 mg/kg, week 4 post challenge) of the same compound?
**A.** 62 copies per mL

**Q.** What about the “Plasma SHIV RNA” value (SHIV-SF162P3; animal V411, 50 mg/kg, week 5 post challenge) of the same compound?
**A.** 62 copies per mL

**Q.** And the “Plasma SHIV RNA” value (SHIV-SF162P3; animal V411, 50 mg/kg, week 6 post challenge)?
**A.** 62 copies per mL

**Q.** And the “Plasma SHIV RNA” value (SHIV-SF162P3; animal V411, 50 mg/kg, week 7 post challenge)?
**A.** 62 copies per mL

**Q.** And the “Plasma SHIV RNA” value (SHIV-SF162P3; animal V411, 50 mg/kg, week 8 post challenge)?
**A.** 62 copies per mL

**Q.** And the “Plasma SHIV RNA” value (SHIV-SF162P3; animal V411, 50 mg/kg, week 9 post challenge)?
**A.** 62 copies per mL

**Q.** What about the “Plasma SHIV RNA” value (SHIV-SF162P3; animal V411, 50 mg/kg, week 10 post challenge) of the same compound?
**A.** 62 copies per mL

**Q.** What about the “Plasma SHIV RNA” value (SHIV-SF162P3; animal V411, 50 mg/kg, week 11 post challenge) of the same compound?
**A.** 62 copies per mL

**Q.** What about the “Plasma SHIV RNA” value (SHIV-SF162P3; animal V411, 50 mg/kg, week 12 post challenge) of the same compound?
**A.** 62 copies per mL

**Q.** And the “Plasma SHIV RNA” value (SHIV-SF162P3; animal V411, 50 mg/kg, week 13 post challenge)?
**A.** 62 copies per mL

**Q.** And the “Plasma SHIV RNA” value (SHIV-SF162P3; animal V411, 50 mg/kg, week 14 post challenge)?
**A.** 62 copies per mL

**Q.** And the “Plasma SHIV RNA” value (SHIV-SF162P3; animal V411, 50 mg/kg, week 15 post challenge)?
**A.** 62 copies per mL

**Q.** What about the “Plasma SHIV RNA” value (SHIV-SF162P3; animal V411, 50 mg/kg, week 16 post challenge) of the same compound?
**A.** 62 copies per mL

**Q.** And the “Plasma SHIV RNA” value (SHIV-SF162P3; animal V411, 50 mg/kg, week 17 post challenge)?
**A.** 62 copies per mL

**Q.** What about the “Plasma SHIV RNA” value (SHIV-SF162P3; animal V411, 50 mg/kg, week 18 post challenge) of the same compound?
**A.** 62 copies per mL

**Q.** And the Challenge outcome (SHIV-SF162P3; animal V417, 75 mg/kg)?
**A.** Not infected

**Q.** What about the “Intact SHIV DNA / 10M PBMC” value (SHIV-SF162P3; animal V417, 75 mg/kg, Wk 2 post challenge) of the same compound?
**A.** 1 / 10M PBMC

**Q.** And the “Intact SHIV DNA / 10M PBMC” value (SHIV-SF162P3; animal V417, 75 mg/kg, Wk 10 post challenge)?
**A.** 1 / 10M PBMC

**Q.** What about the “Plasma SHIV RNA” value (SHIV-SF162P3; animal V417, 75 mg/kg, week 0 post challenge) of the same compound?
**A.** 62 copies per mL

**Q.** What about the “Plasma SHIV RNA” value (SHIV-SF162P3; animal V417, 75 mg/kg, week 1 post challenge) of the same compound?
**A.** 62 copies per mL

**Q.** And the “Plasma SHIV RNA” value (SHIV-SF162P3; animal V417, 75 mg/kg, week 2 post challenge)?
**A.** 62 copies per mL

**Q.** And the Challenge outcome (SHIV-SF162P3; animal V426, 75 mg/kg)?
**A.** Not infected

**Q.** What about the “Intact SHIV DNA / 10M PBMC” value (SHIV-SF162P3; animal V426, 75 mg/kg, Wk 2 post challenge) of the same compound?
**A.** 1 / 10M PBMC

**Q.** And the “Intact SHIV DNA / 10M PBMC” value (SHIV-SF162P3; animal V426, 75 mg/kg, Wk 10 post challenge)?
**A.** 1 / 10M PBMC

**Q.** What about the “Plasma SHIV RNA” value (SHIV-SF162P3; animal V426, 75 mg/kg, week 0 post challenge) of the same compound?
**A.** 62 copies per mL

**Q.** And the “Plasma SHIV RNA” value (SHIV-SF162P3; animal V426, 75 mg/kg, week 1 post challenge)?
**A.** 62 copies per mL

**Q.** And the “Plasma SHIV RNA” value (SHIV-SF162P3; animal V426, 75 mg/kg, week 2 post challenge)?
**A.** 62 copies per mL

**Q.** What about the “Plasma SHIV RNA” value (SHIV-SF162P3; animal V426, 75 mg/kg, week 3 post challenge) of the same compound?
**A.** 62 copies per mL

**Q.** And the Challenge outcome (SHIV-SF162P3; animal V430, 50 mg/kg)?
**A.** Not infected
